Values belong to the molecule of their own block, whether it stands above or below them.
Test system: 967376-340-R-J2-PDC multicell spheroid viability
Assay: Anticancer human tumor 967376-340-R-J2-PDC patient-derived colon adenocarcinoma cell line growth inhibition [PI3K]
Details: for IC50: curve of first compound; for viability, T/C: stronger effect = lower value
From the text: Combinatorial screen of targeted agents with the PI3K inhibitors inavolisib, alpelisib, duvelisib, and copanlisib in multi-cell type tumor spheroids
A high-throughput screen of multi-cell type tumor spheroids was designed to identify active combinations of targeted small molecules and PI3K pathway inhibitors. Complex spheroids include a stromal component modeled by human endothelial cells (HUVEC) and fibroblasts modeled by human mesenchymal stem cells (MSCs). The concentration ranges selected for each drug and investigational agent were based upon clinically achievable concentrations if the clinical Cmax of the agent was known.
Compounds. The drugs and investigational agents: inavolisib (NSC800729), alpelisib (NSC765974), duvelisib (NSC772469), copanlisib (NSC816437), ipatasertib (NSC767898), afuresertib (NSC778305), talazoparib (NSC767125), sapanisertib (NSC764658), selumetinib (NSC741078), tovorafenib (DAY101, NSC766906), vemurafenib (NSC761431), ravoxertinib (NSC781343), sotorasib (NSC818433), MRTX1133 (NSC 836407), abemaciclib (NSC 768073), palbociclib (NSC758247), venetoclax (NSC 766270), SY5609 (NSC837396), enzalutamide (NSC755605), and darolutamide (NSC825331), were obtained from the National Cancer Institute (NCI) Developmental Therapeutics Program Chemical Repository. The FDA-approved anticancer drug set is available from the NCI Developmental Therapeutics Program. […] The stock solutions were prepared in dimethyl sulfoxide (DMSO, Sigma-Aldrich, St. Louis, MO, cat. D2650) at 800-fold the tested concentration and stored at -70 degrees C prior to their use. All drugs and investigational agents were tested over a range starting from a high concentration at or near the clinical Cmax and decreasing in half-log increments. If the clinical Cmax for an agent had not been determined, the highest concentration tested was 10 microM.
Cell Culture. All cells were maintained in an incubator at 37 degrees C and 5% CO2 with 95% humidity. The PDC lines were cultured according to standard operating procedures established by the NCI PDMR (https://pdmr.cancer.gov/sops/default.htm). All PDCs were thawed and cultured in Matrigel-coated flasks prepared with a working solution of 1X Ham's F-12 nutrient mix, without supplementation (Invitrogen, Waltham, MA, cat. 11765054), 100 U/mL penicillin-streptomycin (Invitrogen, cat. 15140122), and 2.5% Matrigel (Corning Inc., Corning, NY, cat. 354248) for the first three passages. The 354836-022-R-J1-PDC, 475296-252-R-J1-PDC, and 997726-040-R-J2-PDC lines were cultured in 6A media, which includes advanced DMEM/F-12 (Thermo Fisher Scientific, cat. 12634028), 10 mM HEPES (Thermo Fisher Scientific, cat. 15630080), 1X GlutaMAX supplement (Thermo Fisher Scientific, cat. 35050061), 0.1 mg/mL primocin (InvivoGen, San Diego, CA, cat. ant-pm-2), 10% defined fetal bovine serum, heat inactivated (HyClone Laboratories Inc., Logan, UT, cat. SH30070.03HI), 50% L-WRN conditioned media (ATCC, cat. CRL-3276), 1.25 mM N-Acetyl-L-cysteine (Sigma-Aldrich, cat. A9165), 10 mM nicotinamide (Sigma-Aldrich, cat. N0636), 1X B-27 supplement (Thermo Fisher Scientific, cat. 17504044), 1X N-2 supplement (Thermo Fisher Scientific, cat. 17502048), and 10 microM Y-27632 dihydrochloride (Tocris Bioscience, Bristol, United Kingdom, cat. 1254). The 624824-186-R-J2-PDC line was cultured in 6C/Colon 1B media, which includes all 6A media components plus 50 ng/mL human EGF recombinant protein (Thermo Fisher Scientific, cat. PHG0311). […]

[1] = second compound 0.0316 µM, first compound 0.0316 µM
[2] = second compound 0.0316 µM, first compound 0.1 µM
[3] = second compound 0.1 µM, first compound 0.0316 µM
[4] = second compound 0.1 µM, first compound 0.1 µM
[5] = second compound 0.316 µM, first compound 0.0316 µM
[6] = second compound 0.316 µM, first compound 0.1 µM
[7] = second compound 1 µM, first compound 0.0316 µM
[8] = second compound 1 µM, first compound 0.1 µM
[9] = second compound 3.16 µM, first compound 0.0316 µM
[10] = second compound 3.16 µM, first compound 0.1 µM
[11] = second compound 10 µM, first compound 0.0316 µM
[12] = second compound 10 µM, first compound 0.1 µM
[13] = second compound 0.0316 µM, first compound 0.316 µM
[14] = second compound 0.0316 µM, first compound 1 µM
[15] = second compound 0.0316 µM, first compound 3.16 µM
[16] = second compound 0.0316 µM, first compound 10 µM
[17] = second compound 0.1 µM, first compound 0.316 µM
[18] = second compound 0.1 µM, first compound 1 µM
[19] = second compound 0.1 µM, first compound 3.16 µM
[20] = second compound 0.1 µM, first compound 10 µM
[21] = second compound 0.316 µM, first compound 0.316 µM
[22] = second compound 0.316 µM, first compound 1 µM
[23] = second compound 0.316 µM, first compound 3.16 µM
[24] = second compound 0.316 µM, first compound 10 µM
[25] = second compound 1 µM, first compound 0.316 µM
[26] = second compound 1 µM, first compound 1 µM
[27] = second compound 1 µM, first compound 3.16 µM
[28] = second compound 1 µM, first compound 10 µM
[29] = second compound 3.16 µM, first compound 0.316 µM
[30] = second compound 3.16 µM, first compound 1 µM
[31] = second compound 3.16 µM, first compound 3.16 µM
[32] = second compound 3.16 µM, first compound 10 µM
[33] = second compound 10 µM, first compound 0.316 µM
[34] = second compound 10 µM, first compound 1 µM
[35] = second compound 10 µM, first compound 3.16 µM
[36] = second compound 10 µM, first compound 10 µM
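Also: spheroids exposed to agents for 7 days before read-out.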
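For viability, T/C in this document: luminescence used as surrogate of cell viability.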

- IC50 (second compound 0.0316 µM): > 100 nM
- IC50 (second compound 0.1 µM): > 100 nM
- IC50 (second compound 0.316 µM): > 100 nM
- IC50 (second compound 1 µM): > 100 nM
- IC50 (second compound 3.16 µM): > 100 nM
- IC50 (second compound 10 µM): 24.5 nM
SMILES: CC(=O)c1c(C)c2cnc(Nc3ccc(N4CCNCC4)cn3)nc2n(C2CCCC2)c1=O + Cc1nc(NC(=O)N2CCCC2C(N)=O)sc1-c1ccnc(C(C)(C)C(F)(F)F)c1
- viability, T/C (second compound 0.0316 µM, first compound 0.000316 µM): 98.9%
- viability, T/C (second compound 0.0316 µM, first compound 0.001 µM): 84.7%
- viability, T/C (second compound 0.0316 µM, first compound 0.00316 µM): 101%
- viability, T/C (second compound 0.0316 µM, first compound 0.01 µM): 90.7%
- viability, T/C [1]: 102%
- viability, T/C [2]: 77.3%
- viability, T/C (second compound 0.1 µM, first compound 0.000316 µM): 105%
- viability, T/C (second compound 0.1 µM, first compound 0.001 µM): 94.3%
- viability, T/C (second compound 0.1 µM, first compound 0.00316 µM): 88.3%
- viability, T/C (second compound 0.1 µM, first compound 0.01 µM): 99.4%
- viability, T/C [3]: 109%
- viability, T/C [4]: 75.6%
- viability, T/C (second compound 0.316 µM, first compound 0.000316 µM): 89%
- viability, T/C (second compound 0.316 µM, first compound 0.001 µM): 82.1%
- viability, T/C (second compound 0.316 µM, first compound 0.00316 µM): 75%
- viability, T/C (second compound 0.316 µM, first compound 0.01 µM): 82.6%
- viability, T/C [5]: 84.2%
- viability, T/C [6]: 101%
- viability, T/C (second compound 1 µM, first compound 0.000316 µM): 65%
- viability, T/C (second compound 1 µM, first compound 0.001 µM): 74.4%
- viability, T/C (second compound 1 µM, first compound 0.00316 µM): 88.7%
- viability, T/C (second compound 1 µM, first compound 0.01 µM): 79.1%
- viability, T/C [7]: 75.5%
- viability, T/C [8]: 76.3%
- viability, T/C (second compound 3.16 µM, first compound 0.000316 µM): 59.4%
- viability, T/C (second compound 3.16 µM, first compound 0.001 µM): 68.2%
- viability, T/C (second compound 3.16 µM, first compound 0.00316 µM): 74.5%
- viability, T/C (second compound 3.16 µM, first compound 0.01 µM): 57.8%
- viability, T/C [9]: 63.8%
- viability, T/C [10]: 60.4%
- viability, T/C (second compound 10 µM, first compound 0.000316 µM): 62.2%
- viability, T/C (second compound 10 µM, first compound 0.001 µM): 50.8%
- viability, T/C (second compound 10 µM, first compound 0.00316 µM): 57.2%
- viability, T/C (second compound 10 µM, first compound 0.01 µM): 55.9%
- viability, T/C [11]: 46.3%
- viability, T/C [12]: 47.1%

- IC50 (second compound 0.0316 µM): > 10000 nM
- IC50 (second compound 0.1 µM): > 10000 nM
- IC50 (second compound 0.316 µM): 9860 nM
- IC50 (second compound 1 µM): 5160 nM
- IC50 (second compound 3.16 µM): 3530 nM
- IC50 (second compound 10 µM): < 31.6 nM
SMILES: C#Cc1c(F)ccc2cc(O)cc(-c3ncc4c(N5CC6CCC(C5)N6)nc(OCC56CCCN5CC(F)C6)nc4c3F)c12 (stereo unspecified) + Cc1nc(NC(=O)N2CCCC2C(N)=O)sc1-c1ccnc(C(C)(C)C(F)(F)F)c1
- viability, T/C [1]: 104%
- viability, T/C [2]: 85.6%
- viability, T/C [13]: 81.8%
- viability, T/C [14]: 82.7%
- viability, T/C [15]: 80.7%
- viability, T/C [16]: 68%
- viability, T/C [3]: 103%
- viability, T/C [4]: 81.7%
- viability, T/C [17]: 82.3%
- viability, T/C [18]: 70.4%
- viability, T/C [19]: 80.8%
- viability, T/C [20]: 69.6%
- viability, T/C [5]: 64.3%
- viability, T/C [6]: 90%
- viability, T/C [21]: 74.5%
- viability, T/C [22]: 69.8%
- viability, T/C [23]: 78.5%
- viability, T/C [24]: 49.8%
- viability, T/C [7]: 65.1%
- viability, T/C [8]: 68.3%
- viability, T/C [25]: 72.5%
- viability, T/C [26]: 66.8%
- viability, T/C [27]: 60.3%
- viability, T/C [28]: 35.5%
- viability, T/C [9]: 47.6%
- viability, T/C [10]: 75.2%
- viability, T/C [29]: 59%
- viability, T/C [30]: 59.5%
- viability, T/C [31]: 49.3%
- viability, T/C [32]: 34.9%
- viability, T/C [11]: 47.2%
- viability, T/C [12]: 41.7%
- viability, T/C [33]: 51.5%
- viability, T/C [34]: 37.3%
- viability, T/C [35]: 36.1%
- viability, T/C [36]: 16.9%

- IC50 (second compound 0.0316 µM): 3810 nM
- IC50 (second compound 0.1 µM): 6060 nM
- IC50 (second compound 0.316 µM): 3950 nM
- IC50 (second compound 1 µM): 629 nM
- IC50 (second compound 3.16 µM): 386 nM
- IC50 (second compound 10 µM): 43.2 nM
SMILES: CC1(C)CCC(Nc2ncc(C(F)(F)F)c(-c3c[nH]c4c(P(C)(C)=O)c(C#N)ccc34)n2)CN1 (stereo unspecified) + Cc1nc(NC(=O)N2CCCC2C(N)=O)sc1-c1ccnc(C(C)(C)C(F)(F)F)c1
- viability, T/C [1]: 82.8%
- viability, T/C [2]: 72.5%
- viability, T/C [13]: 55.6%
- viability, T/C [14]: 54.7%
- viability, T/C [15]: 61.5%
- viability, T/C [16]: 40.8%
- viability, T/C [3]: 78.4%
- viability, T/C [4]: 68.8%
- viability, T/C [17]: 69.7%
- viability, T/C [18]: 66.8%
- viability, T/C [19]: 63%
- viability, T/C [20]: 41.2%
- viability, T/C [5]: 67.5%
- viability, T/C [6]: 73.3%
- viability, T/C [21]: 48.5%
- viability, T/C [22]: 58.5%
- viability, T/C [23]: 60.4%
- viability, T/C [24]: 39.2%
- viability, T/C [7]: 51.6%
- viability, T/C [8]: 53.8%
- viability, T/C [25]: 72.8%
- viability, T/C [26]: 43.6%
- viability, T/C [27]: 45.5%
- viability, T/C [28]: 34.1%
- viability, T/C [9]: 58.9%
- viability, T/C [10]: 51.2%
- viability, T/C [29]: 49.4%
- viability, T/C [30]: 47.3%
- viability, T/C [31]: 41.4%
- viability, T/C [32]: 30.7%
- viability, T/C [11]: 54.8%
- viability, T/C [12]: 39.1%
- viability, T/C [33]: 39.6%
- viability, T/C [34]: 34.9%
- viability, T/C [35]: 31.4%
- viability, T/C [36]: 23.3%
